We go through six compounds from BindingDB's records for patent US12427146 (Inventisbio Co., 2025).

Experiment [1] concerns the target Tyrosine-protein kinase Lck (Homo sapiens, UniProt P06239). The experiment in a line: LCK Inhibition Assay. As to the method:
Test compound was dissolved in DMSO at 10 mM. 45 uL of compound was transfer into a 384-well compound source plate (LABCYTE cat #P-05525) and serially diluted at 1:3 ratio to create a 11-point dilutions. The same volume of DMSO was adopted as high control. 20 nL of these compounds DMSO dilutes were dispensed into a new 384-well assay plate by Echo 550. LCK protein (0.50 nM, Cama Biosciences, cat #08-170), florescent labeled substrate FLPeptide4 (2 μM, PerkinElmer, cat #760348) was prepared in kinase assay buffer (50 mM HEPES (pH 7.5), 10 mM MgCl2, 0.01% Brij-35, 2 mM DTT and 0.005 mg/ml BSA). 15 uL of kinase assay buffer containing LCK protein and substrate was transferred to assay plate and incubate at RT for 30 minutes. Kinase assay buffer supplemented with substrate peptides was employed as low control to monitor the background. 400 μM ATP was prepared in kinase assay buffer and 5 μL of ATP solution was added to each well to start the reaction. The assay plate was incubated at 25° C. for 90 minutes and the reaction was stopped by adding 40 μL of 0.5 M EDTA.

The target of experiment [2] is Tyrosine-protein kinase CSK (Homo sapiens, UniProt P41240). The experiment in a line: CSK Inhibition Assay. As to the method: Test compound was dissolved in DMSO at 10 mM. 45 uL of compound was transferred into a 384-well compound source plate (LABCYTE cat #P-05525) and serially diluted at 1:3 ratio to create a 11-point dilutions. The same volume of DMSO was adopted as high control. 20 nL of these compounds DMSO dilutes were dispensed into a new 384-well assay plate by Echo 550. […] 15 uL of kinase assay buffer containing CSK protein and substrate was transferred to assay plate and incubated at RT for 30 minutes. Kinase assay buffer supplemented with substrate peptides was employed as low control to monitor the background. 4 μM of ATP was prepared in kinase assay buffer and 5 μL of ATP solution was added to each well to start the reaction. The assay plate was incubated at 25° C. for 90 minutes and the reaction was stopped by adding 40 μL of 0.5 M EDTA.
Sequence of Tyrosine-protein kinase CSK (P41240 whole entry): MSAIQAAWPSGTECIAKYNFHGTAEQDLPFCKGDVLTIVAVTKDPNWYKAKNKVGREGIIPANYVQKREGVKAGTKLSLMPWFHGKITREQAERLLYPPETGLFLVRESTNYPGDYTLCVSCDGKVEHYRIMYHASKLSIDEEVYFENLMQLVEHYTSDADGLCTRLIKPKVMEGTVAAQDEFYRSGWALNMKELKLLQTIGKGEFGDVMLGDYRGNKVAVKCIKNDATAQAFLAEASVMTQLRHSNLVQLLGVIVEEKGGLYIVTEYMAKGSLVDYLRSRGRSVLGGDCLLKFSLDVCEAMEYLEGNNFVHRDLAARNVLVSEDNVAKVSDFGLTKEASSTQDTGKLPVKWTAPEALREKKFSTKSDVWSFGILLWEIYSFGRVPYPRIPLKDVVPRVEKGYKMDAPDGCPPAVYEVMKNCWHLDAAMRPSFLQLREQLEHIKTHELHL

Sequence of Tyrosine-protein kinase Lck (P06239 whole entry): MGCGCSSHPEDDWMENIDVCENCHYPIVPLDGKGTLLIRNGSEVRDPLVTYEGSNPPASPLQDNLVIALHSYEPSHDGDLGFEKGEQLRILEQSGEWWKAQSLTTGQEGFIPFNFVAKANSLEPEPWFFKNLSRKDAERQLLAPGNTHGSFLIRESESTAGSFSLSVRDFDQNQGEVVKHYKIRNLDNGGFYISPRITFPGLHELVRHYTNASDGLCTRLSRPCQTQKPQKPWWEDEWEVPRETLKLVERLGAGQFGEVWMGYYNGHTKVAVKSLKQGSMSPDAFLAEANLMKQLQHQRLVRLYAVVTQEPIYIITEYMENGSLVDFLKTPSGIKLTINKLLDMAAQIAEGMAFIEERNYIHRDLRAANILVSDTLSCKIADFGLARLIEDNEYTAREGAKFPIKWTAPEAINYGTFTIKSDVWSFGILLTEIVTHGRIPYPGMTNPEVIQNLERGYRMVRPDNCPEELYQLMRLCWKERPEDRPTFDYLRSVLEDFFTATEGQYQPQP

In general, IC50 refers to the concentration at which inhibition is half-maximal. A lower IC50 goes with higher potency. As for `Nc1nccc(-c2sc(-c3ccccc3)nc2-c2cc(F)cc(NS(=O)(=O)c3c(F)cccc3F)c2)n1` [US12427146, Compound 20], the IC50 in experiment [1] was over 1000 nM; in experiment [2], 132 nM.

For the compound `COc1cc(NS(=O)(=O)c2c(F)cccc2F)cc(-c2nc(-c3cncc(F)c3)sc2-c2ccnc(N)n2)c1` [US12427146, Compound 21], in experiment [2], the IC50 was determined as 25.2 nM.

For the compound `COc1cc(F)c(S(=O)(=O)Nc2cccc(-c3nc(-c4ccccc4)sc3-c3ccnc(N)n3)c2F)c(F)c1` [US12427146, Compound 22], the values for the IC50 in experiment [1] and in experiment [2] were over 1000 nM and 44.8 nM, respectively.

Turning to `COc1cc(NS(=O)(=O)c2c(F)cccc2F)c(F)c(-c2nc(-c3ccccc3)sc2-c2ccnc(N)n2)c1` [US12427146, Compound 23], the IC50 in experiment [1] was under 100 nM; in experiment [2] it was 4.1 nM.

For `Nc1nccc(-c2sc(-c3ccccc3)nc2-c2cccc(NS(=O)(=O)c3ccc4c(c3)CNC4=O)c2F)n1` [US12427146, Compound 81], the midpoint of inhibition in experiment [2], the IC50, lay at 4510 nM.

`Nc1nccc(-c2sc(-c3ccccc3)nc2-c2cccc(NS(=O)(=O)c3ccc4c(c3)CNC4)c2F)n1` [US12427146, Compound 82] showed an IC50 in experiment [2] of over 10000 nM.
